Results reported in patent publication US20230114728A1 (Venatorx Pharmaceuticals, Inc., priority 2019, published 2023).
In brackets after ≈: the same amount, converted by molar mass. Where two headings read alike, the source gives them in different places.

Columns and labels:
Assay type in all cases: cell-based
A. baumannii ATCC 19606 = assay: Broth microdilution MIC in CAMHB; settings: Acinetobacter baumannii, ATCC19606; MHB; read-out: Minimum Inhibitory Concentration, A. baumannii ATCC 19606
Outline: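 Lowest compound concentration with no visible growth after 16-20 h at 37 °C defines MIC. Plates of 2-fold serial dilutions in cation-adjusted Mueller Hinton broth received 2-8×10^5 CFU/mL of exponentially grown cells, per CLSI methods; panel spans reference, hyper-permeable and efflux-pump-deleted strains.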

E. coli 901C = assay: Broth microdilution MIC in CAMHB; settings: Escherichia coli; E. coli 901C (hyper-permeable); MHB; read-out: Minimum Inhibitory Concentration, E. coli 901C
Outline: (§1)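 CLSI microdilution; CAMHB; inoculum 2-8×10^5 CFU/mL from 3-5 h 37° C culture; 2-fold compound series; 16-20 h, 37° C; MIC = lowest well without visible growth.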

[1] = tested on: K. pneumoniae UMM producing SHV-5 and KPC-2; assay: Broth microdilution MIC in CAMHB; settings: Klebsiella pneumoniae, read-out: Minimum Inhibitory Concentration, K. pneumoniae UMM
Outline: as §1

[2] = tested on: P. aeruginosa (ΔmexAB-oprM); assay: Broth microdilution MIC in CAMHB; settings: Pseudomonas aeruginosa, read-out: Minimum Inhibitory Concentration, P. aeruginosa ΔmexAB-OprM
Outline: as §1

[3] = tested on: N. gonorrhoeae ATCC 49226; assay: Liquid broth MIC in Fastidious broth; settings: Neisseria gonorrhoeae, ATCC49226, Fastidious broth
Outline: (§2)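 Colonies were swabbed from chocolate agar after 24 h growth and standardised by optical density at 600 nm. Compounds were serially diluted twofold in Fastidious broth, and bacteria added to give 5×10^5 CFU/mL. After about 24 h at 36 °C in 5% CO2, the lowest concentration allowing under 10% growth was taken as MIC.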

N. gonorrhoeae FA1090 = assay: Liquid broth MIC in Fastidious broth; settings: Neisseria gonorrhoeae, Fastidious broth
Outline: as §2

N. gonorrhoeae H041 = assay: Liquid broth MIC in Fastidious broth; settings: Neisseria gonorrhoeae
Outline: (§3)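 Strains bearing mosaic PBP2 grown 24 h on chocolate agar (36° C, 5% CO2), suspended in saline and added to 2-fold compound dilutions in Fastidious broth at 5×10^5 CFU/mL. After ~24 hours at 36° C with 5% CO2, MIC taken visually as lowest well with <10% growth relative to full growth.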

N. gonorrhoeae WHO G = assay: Liquid broth MIC in Fastidious broth; settings: Neisseria gonorrhoeae, Fastidious broth
Outline: as §2

N. gonorrhoeae WHO K = assay: Liquid broth MIC in Fastidious broth; settings: Neisseria gonorrhoeae
Outline: as §3

N. gonorrhoeae WHO L = assay: Liquid broth MIC in Fastidious broth; settings: Neisseria gonorrhoeae, Fastidious broth
Outline: as §2

N. gonorrhoeae WHO Q = assay: Liquid broth MIC in Fastidious broth; settings: Neisseria gonorrhoeae
Outline: as §3

N. gonorrhoeae WHO Z = assay: Liquid broth MIC in Fastidious broth; settings: Neisseria gonorrhoeae
Outline: as §3

[4] = N. gonorrhoeae ATCC 49226, read-out: Minimum Inhibitory Concentration, ATCC 49226
[5] = N. gonorrhoeae FA1090, read-out: Minimum Inhibitory Concentration, FA1090
[6] = H041, read-out: Minimum Inhibitory Concentration, H041
[7] = N. gonorrhoeae WHO G, read-out: Minimum Inhibitory Concentration, WHO G
[8] = read-out: Minimum Inhibitory Concentration, WHO K
[9] = N. gonorrhoeae WHO L, read-out: Minimum Inhibitory Concentration, WHO L
[10] = read-out: Minimum Inhibitory Concentration, WHO Q
[11] = read-out: Minimum Inhibitory Concentration, WHO Z

Compound | MIC (A. baumannii ATCC 19606) [µg/mL] | MIC (E. coli 901C) [µg/mL] | MIC [1] [µg/mL] | MIC [2] [µg/mL] | MIC ([3]; N. gonorrhoeae strain ATCC 49226, read-out: Minimum Inhibitory Concentration, N. gonorrhoeae ATCC 49226) [µg/mL] | MIC (N. gonorrhoeae FA1090; N. gonorrhoeae strain FA1090, read-out: Minimum Inhibitory Concentration, N. gonorrhoeae FA1090) [µg/mL] | MIC (N. gonorrhoeae H041; H041, read-out: Minimum Inhibitory Concentration, N. gonorrhoeae H041) [µg/mL] | MIC (N. gonorrhoeae WHO G; N. gonorrhoeae strain WHO G, read-out: Minimum Inhibitory Concentration, N. gonorrhoeae WHO G) [µg/mL] | MIC (N. gonorrhoeae WHO K; read-out: Minimum Inhibitory Concentration, N. gonorrhoeae WHO K) [µg/mL] | MIC (N. gonorrhoeae WHO L; N. gonorrhoeae strain WHO L, read-out: Minimum Inhibitory Concentration, N. gonorrhoeae WHO L) [µg/mL] | MIC (N. gonorrhoeae WHO Q; read-out: Minimum Inhibitory Concentration, N. gonorrhoeae WHO Q) [µg/mL] | MIC (N. gonorrhoeae WHO Z; read-out: Minimum Inhibitory Concentration, N. gonorrhoeae WHO Z) [µg/mL] | MIC [3, 4] [µg/mL] | MIC (N. gonorrhoeae FA1090; [5]) [µg/mL] | MIC (N. gonorrhoeae H041; [6]) [µg/mL] | MIC (N. gonorrhoeae WHO G; [7]) [µg/mL] | MIC (N. gonorrhoeae WHO K; [8]) [µg/mL] | MIC (N. gonorrhoeae WHO L; [9]) [µg/mL] | MIC (N. gonorrhoeae WHO Q; [10]) [µg/mL] | MIC (N. gonorrhoeae WHO Z; [11]) [µg/mL]
NCCN1CCN(C(=O)N[C@H](C(=O)N[C@H]2Cc3cccc(C(=O)O)c3OB2O)c2ccc(O)c([N+](=O)[O-])c2)C(=O)C1=O (single isomer, unassigned) [Example 200] | > 128 | 8 to 16 (≈ 13.7 to 27.4 µM) | > 128 | > 128 | > 64 | 4 to 8 (≈ 6.85 to 13.7 µM) | > 64 | > 64 | > 64 | > 64 | > 64 | > 64 |  |  |  |  |  |  |  | 
CCN1CCN(C(=O)N[C@H](C(=O)N[C@H]2Cc3cccc(C(=O)O)c3OB2O)c2ccc(C(=O)O)c(F)c2Cl)C(=O)C1=O (single isomer, unassigned) [Example 202] | > 128 | 0.5 to 1 (≈ 0.827 to 1.65 µM) | > 128 | > 128 |  |  |  |  |  |  |  |  | 16 to 32 (≈ 26.5 to 52.9 µM) | 4 to 8 (≈ 6.61 to 13.2 µM) | > 64 | 16 to 32 (≈ 26.5 to 52.9 µM) | > 64 | > 64 | > 64 | 16 to 32 (≈ 26.5 to 52.9 µM)
CCN1CCN(C(=O)N[C@@H](C(=O)N[C@H]2Cc3cccc(C(=O)O)c3OB2O)c2ccc(C(=O)O)c(F)c2Cl)C(=O)C1=O (single isomer, unassigned) [Example 203] | > 128 | < 0.25 | 32 to 64 (≈ 52.9 to 106 µM) | 8 to 16 (≈ 13.2 to 26.5 µM) |  |  |  |  |  |  |  |  | 4 to 8 (≈ 6.61 to 13.2 µM) | 0.25 to 0.5 (≈ 0.413 to 0.827 µM) | 16 to 32 (≈ 26.5 to 52.9 µM) | 4 to 8 (≈ 6.61 to 13.2 µM) | 16 to 32 (≈ 26.5 to 52.9 µM) | > 64 | 4 to 8 (≈ 6.61 to 13.2 µM) | 4 to 8 (≈ 6.61 to 13.2 µM)
NCCN1CCN(C(=O)N[C@H](C(=O)N[C@H]2Cc3cccc(C(=O)O)c3OB2O)c2c(F)cccc2F)C(=O)C1=O (single isomer, unassigned) [Example 204] | > 128 | 8 to 16 (≈ 14.3 to 28.6 µM) | > 128 | > 128 |  |  |  |  |  |  |  |  | > 64 | 16 to 32 (≈ 28.6 to 57.2 µM) | > 64 | > 64 | > 64 | > 64 | > 64 | > 64
NCCN1CCN(C(=O)N[C@@H](C(=O)N[C@H]2Cc3cccc(C(=O)O)c3OB2O)c2c(F)cccc2Cl)C(=O)C1=O (single isomer, unassigned) [Example 205] | > 128 | 8 to 16 (≈ 13.9 to 27.8 µM) | > 128 | 32 to 64 (≈ 55.6 to 111 µM) |  |  |  |  |  |  |  |  | > 64 | 16 to 32 (≈ 27.8 to 55.6 µM) | > 64 | > 64 | > 64 | > 64 | > 64 | > 64
NCCN1CCN(C(=O)N[C@H](C(=O)N[C@H]2Cc3cccc(C(=O)O)c3OB2O)c2c(F)cccc2Cl)C(=O)C1=O (single isomer, unassigned) [Example 206] | > 128 | 32 to 64 (≈ 55.6 to 111 µM) | > 128 | > 128 |  |  |  |  |  |  |  |  | > 64 | > 64 | > 64 | > 64 | > 64 | > 64 | > 64 | > 64
CCN1CCN(C(=O)N[C@@H](C(=O)N[C@H]2Cc3ccc(F)c(C(=O)O)c3OB2O)c2ccc(O)c(O)c2)C(=O)C1=O [Example 211, (R)-3-((R)-2-(3,4-dihydroxyphenyl)-2-(4-ethyl-2,3-dioxopiperazine-1-carboxamido)acetamido)-7-fluoro-2-hydroxy-3,4-dihydro-2H-benzo[e][1,2]oxaborinine-8-carboxylic acid] |  |  |  |  |  |  |  |  |  |  |  |  | 16 to 32 (≈ 28.7 to 57.3 µM) | 4 to 8 (≈ 7.16 to 14.3 µM) | 16 to 32 (≈ 28.7 to 57.3 µM) | 16 to 32 (≈ 28.7 to 57.3 µM) | 16 to 32 (≈ 28.7 to 57.3 µM) | > 64 | 16 to 32 (≈ 28.7 to 57.3 µM) | 16 to 32 (≈ 28.7 to 57.3 µM)
